The values below come from patent publication US20210260057A1, “COMPOSITIONS AND METHODS TARGETING GLUTAMINE AND ITS METABOLISM FOR DIAGNOSING AND TREATING CANCER AND THERAPY-ASSOCIATED SIDE EFFECTS” (CEDARS-SINAI MEDICAL CENTER, priority 2018, published 2021).

Structures are written as SMILES. “And” between values parts separate entries of the source, which are not always exact repeats. Equal entries are not always repeated.

One test relates to RASAL3 promoter. Kind of test: Methylation specific PCR of RASAL3 exon 2 in CAF. The format is cell-based, human. Particulars: CAF after treatment. On the procedure: (FIG. 13A) Quantitative rtPCR analysis of RASAL3 in NAF and CAF was performed following 5 day treatment with bicalutamide (Bic, 10^−5 M), enzalutamide (Enza, 10^−5 M), R1881 (10^−9 M), or 5-Azacytidine (5-Aza, […]). RASAL3 expression was normalized GAPDH expression. Data represent the mean±SEM. *P<0.05, ***P<0.001, and ****P<0.0001, by two-way ANOVA followed by multiple comparison. Results are the average of at least three independent experiments. (FIG. 13B) MS-PCR of the RASAL3 exon 2 methylation status in CAF after treatment with enzalutamide, R1881, 5-Azacytidine and bicalutamide was performed. The PCR products in the lanes marked “U” indicate unmethylated templates for RASAL3 gene, whereas the products in the lanes marked “M” indicate methylated templates. Data are representative of three independent experiments.

The next test concerns primary CAF. Kind of test: Macropinocytosis assay (TMR-dextran uptake). The format is cell-based, human. Particulars: EIPA 25 μM, 5-Aza DC 5 μM (FIG. 9A). On the procedure:
Macropinocytosis assay. These were performed as described previously (Commisso C, Davidson S M, Soydaner-Azeloglu R G, Parker S J, Kamphorst J J, Hackett S, Grabocka E, Nofal M, Drebin J A, Thompson C B, et al. Macropinocytosis of protein is an amino acid supply route in Ras-transformed cells. Nature. 2013; 497(7451):633-7), briefly fibroblasts which were grown on cover slips, serum-starved for 18 hours. TMR-dextran (1 mg/ml; 70 kDa, […]), which is an established marker of macropinocytosis, was added to serum-free medium for 30 min at 37° C. for macropinosomes labeling (Commisso C, Davidson S M, Soydaner-Azeloglu R G, Parker S J, Kamphorst J J, Hackett S, Grabocka E, Nofal M, Drebin J A, Thompson C B, et al. Macropinocytosis of protein is an amino acid supply route in Ras-transformed cells. Nature. 2013; 497(7451):633-7). […] Images were captured using laser confocal scanning microscopy (Leica) and analyzed via LASX software. […] The fluorescence signals in the cells were imaged using FSX100 (Olympus, USA). To determine whether the internalized albumin is intracellularly degraded, we have utilized a self-quenching red fluorescent dye, where lysosomal proteases enable red fluorescence visualization. Cells were incubated in RPMI media containing DQ-BSA (10 μg/ml) for 30 min and washed twice with PBS and monitored by confocal microscopy.

A further test concerns RASAL3 mRNA in CAF. Description: RASAL3 mRNA expression (rtPCR) in CAF. Particulars: 5-day treatment; Bic 10^−5 M, Enza 10^−5 M, R1881 10^−9 M, 5-Aza 5 mmol/L. In kind it is cell-based, human. On the procedure:
(§1) RNA expression level. All real-time PCR assays were carried out using three technical replicates and three independent cDNA syntheses on a 7500 Real-Time PCR System (Applied Biosystems). Data were normalized using an internal control gene, either GAPDH or β-actin. Relative quantification of expression levels (RQ) was calculated using the ^2-ΔΔCt method.

Test [1] concerns prostate cancer (serum PSA). Kind of test: PSA response of PCa patients on androgen targeted therapy. Also on record: PSA on treatment: unit not given beside the values. In kind it is in vivo, human. As to conditions: for PSA on treatment: individual PCa patient on the listed Rx. The source says:
Plasma glutamine level may be prognostic for ADT sensitivity. Considering the striking finding that glutamine can induce ADT resistance, we tested if glutamine concentrations can be associated with ADT sensitivity in prostate cancer patients. We measured blood plasma glutamine concentrations in 28 PCa patients that received ADT (Table 1). Of note, the specific androgen signaling-axis interventions in the patient pool included, androgen receptor antagonists: bicalutamide, enzalutamide, and apalutamide, as well as androgen synthesis inhibitors: leuprolide, goserelin, triptorelin, and abiraterone.

The next test deals with CWR22Rv1 cells. Kind of test: 3D organotypic co-culture, epithelial proliferation by FACS (EpCAM+/Ki67+). In kind it is cell-based, human. Particulars: 3D co-cultures of fibroblasts and CWR22Rv1; P<0.05 (GPNA), P<0.001 (BPTES). On the procedure:
(§2) 3D organotypic co-culture. A modified version of the 3D organotypic co-culture system was performed in a collagen matrix similar to that previously reported (Stark H J, Baur M, Breitkreutz D, Mirancea N, and Fusenig N E. Organotypic keratinocyte cocultures in defined medium with regular epidermal morphogenesis and differentiation. J Invest Dermatol. 1999; 112(5):681-91). Matrix were prepared by mixing five volumes of rat tail collagen with two volumes of matrigel in one volume of 10×DMEM medium (GE Healthcare Life Sciences), and one volume of FBS (Atlanta Biologicals). CWR22Rv1 and primary mouse prostatic fibroblasts (WT or RAS^V12) were combined in a 1:3 ratio in the matrix. Nylon squares were coated with collagen and placed on metal grids in a 6-well plate. Matrix plugs containing cells, formed in 96 well plates (150 μl), were transferred onto the nylon squares and media was added to the level of the nylon mesh. Following treatments, the cells were dissociated from the matrix with collagenase and dispase for FACS analysis.

Test [2] has as its system prostate cancer epithelial cells. Kind of test: ALDH (stem marker) in prostate cancer epithelial cells. In kind it is cell-based.
The subject of test [3] is human prostate cancer cells (CWR22Rv1). Description: Gene expression in prostate cancer cells (FIG. 15A-D). The format is cell-based. As to conditions: FIG. 15D.
The next test relates to CWR22Rv1 with CAF. Kind of test: 3D co-cultures of CAF-CWR22Rv1, neuroendocrine gene panel rtPCR. In kind it is cell-based, human. Particulars: in the context of enzalutamide, 3 days, glutamine free media, well below control levels, F test P<0.0001. On the procedure: as §2, §1
The subject of another test is PD1 and CD47 on CWR22Rv1. Kind of test: FACS of immune checkpoint proteins in prostate cancer/fibroblast co-culture. The format is cell-based, human. Particulars: CWR22Rv1 co-cultured with wild type or CD105-knockout fibroblasts.
The subject of another test is CWR22Rv1. Kind of test: MTT viability assay, CWR22Rv1. The format is cell-based, human. Particulars: CWR22Rv1, 72 hrs incubation with EIPA. Here is the method:
(§3) (FIG. 10A) The viability of CWR22Rv1 and mouse prostatic fibroblasts (Cas9 control and Rasa13-KO) was measured by MTT assay following 72 hrs incubation with macropinocytotic inhibitor, EIPA. The bar graphs represent the absorbance of the MTT formazan determined at 570 nm from a single experiment representative of a total 3 independent experiments, each performed in quadruplicate. Statistical significance was determined by one-way ANOVA. (FIG. 10B) Quantitation of EpCAM-positive epithelial cells were achieved by FACS of 3D co-cultures of human C4-2B epithelia and wild type (WT) or Ras^V12 mouse fibroblasts. Statistical significance was determined by unpaired t test. (FIG. 10C) Stromal fibroblasts (Cas9 or Rasa13-KO) cultured with CWR22Rv1 epithelia using a standard transwell apparatus. […] Epithelial and stromal cells grown in glutamine free either DMEMF12 or RPMI media. are expressed as mean±SEM of 3 independent experiments. Statistical significance was determined by two-tailed student's t test. **P<0.01, ****P<0.0001.
On the technique in general: Tetrazolium dyes change colour on reduction, which living cells bring about.

In test [4] the test system is Rasa13-KO mouse prostatic fibroblasts. Description: MTT viability assay, Rasa13-KO fibroblasts. The format is cell-based. Particulars: 72 hrs incubation with EIPA, P<0.001. Here is the method:
as §3

Test [5] has as its system CWR22Rv1 and Ras^V12 mouse fibroblast tissue recombinants. Kind of test: Orthotopic tissue recombinant xenograft, EIPA treatment. Particulars: SCID mice, anterior prostate grafts; EIPA for 1 week from two weeks after grafting, vs vehicle control; P<0.01 (FIG. 2H). In kind it is in vivo. The source says: Tissue recombination mouse models.
To directly determine if Ras signaling confers a tumor supportive role associated with CAF, we used CRISPR/Cas9 to knock out Rasa13 in mouse prostatic fibroblasts. Compared to the expression of Cas9 fibroblasts (control), Ras activity and ERK phosphorylation was elevated in Rasa13-knockout (Rasa13-KO) fibroblasts (FIG. 2D). Rasa13-KO fibroblasts took up TMR dextran, whereas it was undetectable in the control fibroblasts (FIG. 2E). The exogenous expression of active Ras^V12 (Gly^12→Val^12) in wild-type mouse prostatic fibroblasts replicated the downstream ERK activation and macropinocytosis observed in CAF and Rasa13-KO cells (FIG. 2 F,G). Thus, epigenetic RASAL3 silencing of prostatic fibroblasts promoted familiar signaling and macropinocytosis associated with Ras transformation (Commisso et al., 2013). […] To test the role of stromal Ras-mediated macropinocytosis on tumor development, orthotopic PCa xenograft models were used. Tissue recombinants of Ras^V12-expressing fibroblasts and CWR22Rv1 epithelia were grafted into the anterior prostates of SCID mice. Two weeks later, mice were treated with vehicle control or EIPA for 1 week to suppress macropinocytosis (FIG. 2H). […] Thus, glutamine uptake by the tumor was necessary for its expansion.

Test [6] relates to mouse prostatic fibroblasts (Cas9 control). Description: MTT viability assay, control (Cas9 / wild type) fibroblasts. In kind it is cell-based. As to conditions: 72 hrs incubation with EIPA. Here is the method:
as §3

On to `Nc1ncn([C@H]2C[C@H](O)[C@@H](CO)O2)c(=O)n1` [5-aza-2′-deoxycytidine], for which the “methylation of the RASAL3 promoter (methylation specific PCR)” value in the test on RASAL3 promoter is listed as “hypomethylation”. The “TMR-dextran uptake by CAF (macropinocytosis)” value in the test with primary CAF is recorded as “inhibited”. Further, the “RASAL3 mRNA expression in CAF” value in the test with RASAL3 mRNA in CAF is “restored”.
Take `C[C@]12CC[C@H](O)CC1=CC[C@@H]1[C@@H]2CC[C@]2(C)C(c3cccnc3)=CC[C@@H]12` [A, Abiraterone]: in test [1], the PSA on treatment was 26.2 and 6.4.
`O=C(Cc1ccccc1)Nc1nnc(CCSCCc2nnc(NC(=O)Cc3ccccc3)s2)s1` [BPTES, bis-2(5-phenylacetamido-1,3,4-thiadiazol-2-yl)ethyl sulfide]: the “epithelial proliferation (Ki-67 staining of EpCAM+ cells, FACS)” value with CWR22Rv1 cells is given as “significantly decreased epithelial proliferation”. For the same compound, the “enzalutamide-upregulated ALDH” value in [2] (epithelial culture without stromal fibroblasts (FIG. 17B)) was “can be limited”. Also, the “enzalutamide-induced TET2 expression” value in test [3] is recorded as “downregulates”. Moreover, the “mRNA expression of the panel of neuroendocrine biomarker genes” value in the test on CWR22Rv1 with CAF is given as “significantly reduced”. Further, in the test with PD1 and CD47 on CWR22Rv1, the “CD47 expression (FACS)” value is “downregulated” and the “PD1 expression (FACS)” value was “downregulated”.
For `CCN(c1nc(N)c(C(=O)N=C(N)N)nc1Cl)C(C)C` [EIPA, 5-(N-ethyl-N-isopropyl) amiloride], the “viability (MTT)” value was “no significant effect” in the test with CWR22Rv1, “reduced the viability” in test [4] and “no significant effect” in [6]. Also, the tumor size result in test [5] was “dramatically reduced tumor size”. The “TMR-dextran uptake by CAF (macropinocytosis)” value in the test on primary CAF was “inhibited”.
Consider `CCNC(=O)[C@@H]1CCCN1C(=O)[C@H](CCCNC(=N)N)NC(=O)[C@H](CC(C)C)NC(=O)[C@@H](CC(C)C)NC(=O)[C@H](Cc1ccc(O)cc1)NC(=O)[C@H](CO)NC(=O)[C@H](Cc1c[nH]c2ccccc12)NC(=O)[C@H](Cc1c[nH]cn1)NC(=O)[C@@H]1CCC(=O)N1` [L, Leuprolide], for which the PSA on treatment in [1] was <0.1 and 7.8 and 0.1 and 1.1 and 1.2 and 0.2. Also, the Outcome entry in test [1] (individual PCa patient, responsiveness to ADT based on serum PSA) is “Responsive (4×) and Non- (2×)”.
Consider `CC(O)(CS(=O)(=O)c1ccc(F)cc1)C(=O)Nc1ccc(C#N)c(C(F)(F)F)c1` (stereo not shown) [bicalutamide], for which the PSA on treatment in test [1] was 11.3.
Take `N[C@@H](CCC(=O)O)C(=O)O` [glutamate]: the “ALDH (stem marker)” value in [2] (prostate cancer epithelial cells (FIG. 17A, 17B)) was “upregulates ALDH further”.
